Data set [1] is described as follows: Bulk stability of crystalline form C under stress conditions (HPLC, XRPD, color). It counts as physicochemical. Particulars: for Color / Purity (HPLC) Initial purity:99.9%: 1 week. The method, then:
Crystalline form C was placed in an open container at 25°C/92.5% RH, in an open container at 40°C/75% RH, and in a closed container at 60°C for 1 week, respectively. After exposure to the stress conditions, the samples were characterized by XRPD and HPLC, and examined for color changes.
Reference is made to Experimental Method 6 for the HPLC conditions.

The nature of data set [2]: Compression simulation experiment (XRPD). It counts as physicochemical. The settings on record: compressed for 5 minutes at 2 MPa, 5 MPa, and 10 MPa. The protocol:
About 5 mg of crystalline form C was compressed for 5 minutes at 2 MPa, 5 MPa, and 10 MPa using a hydraulic press. Potential changes in form and crystallinity were evaluated by XRPD.
The XRPD results of the compression simulation experiments are shown in Fig. 10, where CSE1, CSE2, and CSE3 represent experiment IDs for pressures of 2 MPa, 5 MPa, and 10 MPa, respectively.

The nature of data set [3]: Parallel artificial membrane permeability assay (PAMPA) for BBB permeability. It counts as in vitro ADME. The method, then:
• PAMPA: PMBBB-096 Kit • Assay format: 96-well plate • Reference substance: Imipramine (H) (10 µM) • Test substance concentration: 10 µM • Number of replicates: 3 • Reaction time: 6 hours at 25°C on a shaker (75 - 80 rpm) • Analytical method: LC-MS/MS • Data processing: Pe (cm/s)
The test compounds (crystalline forms A and C) were dissolved in DMSO at a concentration of 10 mM […] to prepare standard solutions. Next, dried brain lipids were resuspended in 600 µL dodecane to prepare a BBB lipid solution in dodecane. Pipetting up and down was repeated (~100 times) until all dried brain lipids were dissolved (vortexing or sonication may be helpful). A 10 µM reaction solution in PBS containing 5% DMSO was prepared.
The experiments were conducted in a 96-well plate using the prepared reaction solution of each test compound and the BBB lipid solution according to the following assay procedure. • 1. 500 µL of a 500 µM test compound solution (prepared by mixing 25 µL of a 10 mM test compound + 475 µL of PBS (pH 7.2) in DMSO) was prepared in a separate centrifuge tube. When a permeability control was used, it was diluted to 500 µM using PBS (prepared by mixing 25 µL of permeability control + 475 µL of PBS (pH 7.2)). • 2. For each test compound and control, a 200 µM equilibrium standard was prepared in a separate tube (by mixing 80 µL of 500 µM test compound or control with 120 µL of PBS (pH 7.2)). […] The absorbance spectrum from 200 nm to 500 nm was measured at 10 nm intervals to determine the peak absorbance of the test compounds. […] The peak absorbances of the high-permeability and low-permeability controls are 250 nm and 270 nm, respectively.
For the compounds and permeability controls, the permeability rate (Pe) was determined using the following equation: Pe = C × −ln(1−(ODA)/(ODE))cm/s [formula]
Here, ODA is the absorbance of the acceptor solution minus the blank, and ODE is the absorbance of the equilibrium standard minus the blank. For each absorbance value, the peak absorbance determined for each test was used. […]
A general note: PAMPA measures passive passage across an artificial lipid membrane.

The test system of a further data set is IL-33. Nature of the data set: Mouse proteome profiling array analysis of somatosensory cortex homogenates. It counts as in vivo. Particulars: APP/PS1 mice, 1 mg/kg orally for 14 days, cerebral cortex, vs vehicle-treated control group. The protocol:
(§1) To evaluate the efficacy of crystalline form C of the present disclosure in inhibiting amyloid-beta protein accumulation, mouse proteomic profiling array analysis and Bielschowsky silver staining were performed. 15-week-old APP/PS1 mice were used in the experiment, and crystalline form C of the present disclosure (1 mg/kg of BnH-015B) or a vehicle was administered orally.
(§2) Relative levels of mouse cytokines, chemokines, and growth factors were determined using a membrane-based antibody array kit (Proteome Profiler Mouse XL Cytokine Array Kit, ARY028 R&D Systems, Inc., Minneapolis, USA) which features 111 capture antibodies coated in duplicate on a nitrocellulose membrane. Homogenates of the somatosensory cortex of APP/PS1 mice were prepared and tested according to the manufacturer's instructions. The array was detected using an X-ray film (Super RX, Fujifilm, Tokyo, Japan), and the film was read using an Epson scanner (L655 series, Epson, Suwa, Japan), followed by image analysis using ImageJ with the Protein Array Analyzer Macro (National Institutes of Health, Bethesda, MD, USA). […]
(§3) Statistical analysis was performed using GraphPad Prism 9.5.0 software (San Diego, CA, USA). […] All data are expressed as mean ± SEM.

A further data set relates to OPN. The data set is described as above. The settings on record: APP/PS1 mice, 1 mg/kg orally for 14 days, cerebral cortex, vs vehicle-treated control group. It counts as in vivo. The protocol: as §1, §2, §3
The mark [4] stands for this setting: BS1: Solid state, 25°C/92.5% RH, open container.
Where [5] appears, read: BS2: Solid state, 40°C/75% RH, open container.
The mark [6] stands for this setting: BS3: Solid state, 60°C, closed container.

With `C[C@@H]1CC[C@H](C(=O)O)CN1C(=O)Cc1ccc(F)cc1Cl` [Crystalline form C, (3S,6R)-1-(2-(2-chloro-4-fluorophenyl)acetyl)-6-methylpiperidine-3-carboxylic acid], the Color result in data set [1] (setting [4]), in data set [1] (setting [5]) and in data set [1] (setting [6]) was “No color change” each time. Also, the “Purity (HPLC) Initial purity:99.9%” value in data set [1] (setting [4]), in data set [1] (setting [5]) and in data set [1] (setting [6]) was 99.9% each time. For the same molecule, the bulk stability result in data set [1] (from HPLC and XRPD results after 1 week stress) was “high bulk stability both physically and chemically”. Besides, the “change in form and crystallinity on compression” value in data set [2] is on record as “without any change in form or apparent decrease in crystallinity”. The “PAMPA Pe” value in data set [3] (BBB lipid membrane, PBS (pH 7.2)) is given as 11.79 10^-9 cm/sec. Moreover, the “BBB permeability, comparison of forms” value in data set [3] (PAMPA) was “superior BBB permeability compared to crystalline form A”. The “expression level of IL-33” value with IL-33 was “significantly increased”. Also, the OPN expression entry in the data set on OPN is listed as “suppressed”.

The record behind these values is patent publication EP4772497A1, “POLYMORPHS OF NITROGEN-CONTAINING HETEROCYCLIC COMPOUNDS, AND USES THEREOF” (BNH Research Co., Ltd., priority 2023, dated 2025).
